Legend:
[1] = test system: Adjuvant Arthritis; assay: Test 7 Adjuvant arthritis (in vivo); set-up: species or system rat; details: Lewis male rats, 50 mg/kg per os once a day for twelve days
From the text: Test 7 Adjuvant Arthritis (in vivo) For this test Lewis male rats were used. The suspension prepared by suspending Mycobacterium butyricum in liquid paraffin in concentration of 0.5% was subcutaneously injected in a right hind paw. Ten days later the rats in which the definite secondary inflammation on a left hind paw was observed were selected, and to the rats the compound (Example 2) suspended in 0.5% methyl cellulose was orally administered for twelve successive days once a day. Five hours later after finishing administration the volume of the hind paws was compared with the volume when the administration was initiated, and the inhibition activity of edema was evaluated based on this difference.

[2] = test system: degeneration of cartilage; assay: Test 8 Rat meniscectomy model test (in vivo); details: male SD (IGS) rats, 50 mg/kg orally once a day for 3 weeks; injured group = 100%
Experimental: Test 8 Rat Meniscectomy Model Test (in vivo)
For this test male rats (6 weeks old SD (IGS)) were used. A meniscus of joint of a right hind limb was partially removed. Compound of Example 2 was orally administered for 3 weeks once a day in the amount of 50 mg/kg. The tissue speciman of the joint was prepared, and stained with safranin O/first green, and the degeneration of cartilage was evaluated. The degree of the degeneration of cartilage in the test compound group was calculated as 100% of the degree of that in the injured group. Cartilage degeneration rate was 33% (*; p<0.05, Steel-test)

Question: How did the “Increase of edema, Non injected limb” value ([1]; control 1.07 ± 0.31) turn out when `CC(C)CN(C1(C(=O)NO)CCCC1)S(=O)(=O)c1ccc(Oc2ccc(S(C)(=O)=O)cc2)cc1` [Example 2, N-hydroxy 1-[isobutyl({4-[4-(methylsulfonyl)phenoxy]phenyl}sulfonyl)amino]cyclopentanecarboxamide] was run?
Answer: 0.74 ± 0.16 mL

Question: And the “Increase of edema, Injected limb” value ([1]; control −0.24 ± 0.45)?
Answer: -1.06 ± 0.47 mL

Question: What about the Cartilage degeneration rate [2] of the same compound?
Answer: 33%

Reference: US7504537B2, “Hydroxamic acid derivative and MMP inhibitor containing the same as active ingredient” (Dainippon Sumitomo Pharma Co., Ltd., priority 2001, dated 2009)
